Source: patent EP0748792A1 (priority 1994, dated 1995)

Key:
[1] = tested on: total acetylating capability of the organism; assay: Acetylating capability of white rats (sodium sulfacyl acetylation, arylamine content in urine); format: in vivo; conditions: agent 20 mg/kg i.p. 4 days; for Acetylating properties of the organism: Na sulfacyl acetylating in the organism of rats; for Sulfacyl isolation M ± m In acetylated form / Sulfacyl isolation M ± m In free form / Sulfacyl isolation M ± m Total: Na sulfacyl excretion in urine; for % of excretion from the dose In acetylated form / % of excretion from the dose In free form / Concentration in urine In acetylated form / Concentration in urine In free form: Na sulfacyl; for Excretion % from the dose: total Na sulfacyl excretion in urine
Description: It is known that intact animals, receiving sufficient doses of pantothenic acid, have accelerated reactions of arylamine biotransformation. Therefore, there is the possibility to regulate the acetylating processes in the bodies of people and animals. In the examples given below the total acetylating capability of the organism was assessed using the method of quantitative determination of the arylamine content in the urine examined.
As a subject for acetylating, aromatic amines were chosen, as their usage makes it possible to assess both the activity of N-acetylamine transferase and (indirectly) the content of acetyl CoA.
As a subject for examination sodium sulfacyl was chosen. […] 14 animals were included in each group. The examined agent was injected intraperitoneally at a dose of 20 mg/kg. On the 4th day, 4 hours after the last injection of the examined agent, the sodium sulfacyl solution in a dose of 20 mg/kg was injected intraperitoneally. All the rats were separated into exchangeable cages for urine gathering. The collected data were compared with the control groups of animals (group I - only sodium sulfacyl in a dose of 20 mg/kg, and group II - calcium pantothenate).

[2] = tested on: non-linear white rats; assay: Subchronic toxicity in rats (2 months); format: in vivo
Description: 70 non-linear white rats of both sexes with average stated mass of 72 ± 5 g, divided into 7 groups, were used in the experiment. The first three groups of animals received ketopantothenate in 0.2 ml of distilled water in doses: 13.2 mg/kg (therapeutic dose of calcium D-pantothenate), 132 and 264 mg/kg (doses 10 and 20 times larger than the therapeutic dose) internally every day during the experiment. The next three groups of animals received the same doses of calcium D-pantothenate under the same conditions for comparison. The 7th group was the control one and included intact animals. The weighing of the animals was carried out once a week. Permanent observation on development and state of rats was carried out. […] The growth of the mass of the rats receiving ketopantothenate in different doses was 3.7 - 6.0 % higher than the growth of the mass of rats from the control group (correspondingly to doses). The growth of the mass of the rats receiving calcium D-pantothenate in comparison with the control group was approximately the same.
When the experiment was over the animals were slaughtering and the internal organs were examined visually.

[3] = tested on: white non-linear mice; assay: Acute toxicity in mice; format: in vivo
Description: The animals were distributed into 7 groups, 6 animals in each group.
The mice were under observation for 14 days. Starting from the dose of 6g/kg in the first 2 hours after the agent administration the intoxication symptoms were observed: inertia, quickened breathing. Then these symptoms passed without consequences. The mice in all groups were practically healthy, no deviations in the state and behavior of the animals were observed.

[4] = tested on: white non-linear mice; conditions: administered perorally; species not given; cited from earlier work

Row | Compound | Acetylating properties of the organism [1] | Sulfacyl isolation M ± m In acetylated form ([1]; sulfacyl 20 mg/kg i.p.) | Sulfacyl isolation M ± m In free form ([1]; sulfacyl 20 mg/kg i.p.) | Sulfacyl isolation M ± m Total ([1]; sulfacyl 20 mg/kg i.p.) | % of excretion from the dose In acetylated form ([1]; rats) [%] | % of excretion from the dose In free form ([1]; rats) [%] | Concentration in urine In acetylated form ([1]; rats) [mg/mL] | Concentration in urine In free form ([1]; rats) [mg/mL] | Excretion % from the dose [1] [%] | Mass Final ([2]; rat, in vivo, 13.2 mg/kg) | Mass growth during the experiment ([2]; rat, in vivo, 13.2 mg/kg) [g] | Mass growth during the experiment % to the control ([2]; rat, in vivo, 13.2 mg/kg) [%] | Mass Final ([2]; rat, in vivo, 132 mg/kg) | Mass growth during the experiment ([2]; rat, in vivo, 132 mg/kg) [g] | Mass growth during the experiment % to the control ([2]; rat, in vivo, 132 mg/kg) [%] | Mass Final ([2]; rat, in vivo, 264 mg/kg) | Mass growth during the experiment ([2]; rat, in vivo, 264 mg/kg) [g] | Mass growth during the experiment % to the control ([2]; rat, in vivo, 264 mg/kg) [%] | also measured
1 | calcium ketopantothenate [Ca ketopantothenate] | 25.9 | 0.73 ± 0.05 | 2.09 ± 0.17 | 2.82 ± 0.19 | 23.1 ± 1.8 | 66.1 ± 3.2 | 0.221 | 0.63 | 89.2 | 187.6 ± 12.5 | 116.6 ± 8.2 | 103.7 | 193.6 ± 17.3 | 119.3 ± 10.3 | 106.0 | 190.1 ± 21.0 | 117.6 ± 11.0 | 104.5 | total acetylating capability of the organism of white rats (N-acetylation of aromatic amines) ([1]; rats): increased significantly; excretion of acetylated product in comparison with the control group ([1]; rats, sulfacyl 20 mg/kg i.p.): tripled; excretion of free product, lower than the control group ([1]; rats, sulfacyl 20 mg/kg i.p.): 10%; irritation of internal organs (visual examination) ([2]; rat, in vivo): No irritation; toxicity when used over a prolonged period ([2]; rats, 13.2, 132 and 264 mg/kg internally every day, 2 months): not toxic; dose from which intoxication symptoms (inertia, quickened breathing) were observed ([3]; mice, single internal dose, first 2 hours after administration, symptoms passed without consequences): ≥ 6000 mg/kg; dose that was not toxic ([3]; mouse, in vivo, po, 336 h): 8000 mg/kg
2 | CC(C)(CO)[C@@H](O)C(=O)NCCC(=O)O [Ca D-pantothenate, calcium D-pantothenate, reference compound] | 24.0 | 0.67 ± 0.04 | 2.12 ± 0.09 | 2.79 ± 0.19 | 22.3 ± 1.8 | 70.7 ± 6.0 | 0.172 | 0.54 | 93.0 | 187.5 ± 18.4 | 117.2 ± 7.7 | 104.2 | 193.0 ± 14.6 | 118.7 ± 10.4 | 105.3 | 186.1 ± 16.2 | 114.9 ± 8.8 | 102.2 | LD50 [4]: 5920 mg/kg
